Our source for the IC50 values is BindingDB's records for doi:10.1021/jm970470c (Warner-Lambert, 1997).

This assay in a line: Concentration required to inhibit 50% of the cultured colonies of H-Ras-Fcells.
Turning to `O=C(CN(Cc1ccc(OCc2ccccc2)cc1)C(=O)[C@H](Cc1cnc[nH]1)NC(=O)OCc1ccccc1)NCC1(c2ccccc2)CCC1` [[(S)-1-((4-Benzyloxy-benzyl)-{[(1-phenyl-cyclobutylmethyl)-carbamoyl]-methyl}-carbamoyl)-2-(3H-imidazol-4-yl)-ethyl]-carbamic acid benzyl ester], the midpoint of inhibition, the IC50, lay at 0.088 µM. `O=C(CN(Cc1ccc(OCc2ccccc2)cc1)C(=O)[C@H](Cc1cnc[nH]1)NC(=O)OCc1ccccc1)NCC1(c2ccccc2)CCCC1` [[(S)-1-((4-Benzyloxy-benzyl)-{[(1-phenyl-cyclopentylmethyl)-carbamoyl]-methyl}-carbamoyl)-2-(3H-imidazol-4-yl)-ethyl]-carbamic acid benzyl ester]: the IC50 is 0.33 µM. This IC50 is about 3.8-fold higher than that of the compound before. As for `O=C(CN(Cc1ccc(OCc2ccccc2)cc1)C(=O)[C@H](Cc1cnc[nH]1)NC(=O)OCc1ccccc1)NCC1(c2ccccc2)CC1` [[(S)-1-((4-Benzyloxy-benzyl)-{[(1-phenyl-cyclopropylmethyl)-carbamoyl]-methyl}-carbamoyl)-2-(3H-imidazol-4-yl)-ethyl]-carbamic acid benzyl ester], the IC50 amounted to 0.18 µM. Against the preceding compound, the IC50 is about 1.8-fold lower. As for `O=C(CN(Cc1ccc(OCc2ccccc2)cc1)C(=O)[C@H](Cc1cnc[nH]1)NC(=O)OCc1ccccc1)NCCc1ccccc1` [[(S)-1-[(4-Benzyloxy-benzyl)-(phenethylcarbamoyl-methyl)-carbamoyl]-2-(1H-imidazol-4-yl)-ethyl]-carbamic acid benzyl ester], the IC50 worked out at 4.3 µM.

In turn, `O=C(CN(Cc1ccc(OCc2ccccc2)cc1)C(=O)[C@H](Cc1cnc[nH]1)NC(=O)OCc1ccccc1)NCCOCc1ccccc1` [[(S)-1-{(4-Benzyloxy-benzyl)-[(2-benzyloxy-ethylcarbamoyl)-methyl]-carbamoyl}-2-(1H-imidazol-4-yl)-ethyl]-carbamic acid benzyl ester] came in with an IC50 of 14.3 µM.

As to `N#CC(CNC(=O)CN(Cc1ccc(OCc2ccccc2)cc1)C(=O)[C@H](Cc1cnc[nH]1)NC(=O)OCc1ccccc1)c1ccccc1` (stereo partly drawn) [[(S)-1-{(4-Benzyloxy-benzyl)-[(2-cyano-2-phenyl-ethylcarbamoyl)-methyl]-carbamoyl}-2-(3H-imidazol-4-yl)-ethyl]-carbamic acid benzyl ester], the IC50 came to 0.19 µM. This IC50 lies about 75-fold lower than the previous one. `CCC(CC)(CNC(=O)CN(Cc1ccc(OCc2ccccc2)cc1)C(=O)[C@H](Cc1cnc[nH]1)NC(=O)OCc1ccccc1)c1ccccc1` [[(S)-1-{(4-Benzyloxy-benzyl)-[(2-ethyl-2-phenyl-butylcarbamoyl)-methyl]-carbamoyl}-2-(3H-imidazol-4-yl)-ethyl]-carbamic acid benzyl ester] showed an IC50 greater than 1 µM. For `CC(C)(CNC(=O)CN(Cc1ccc(OCc2ccccc2)cc1)C(=O)[C@H](Cc1cnc[nH]1)NC(=O)OCc1ccccc1)c1ccccc1` [[(S)-1-{(4-Benzyloxy-benzyl)-[(2-methyl-2-phenyl-propylcarbamoyl)-methyl]-carbamoyl}-2-(3H-imidazol-4-yl)-ethyl]-carbamic acid benzyl ester], the concentration for half-maximal inhibition (IC50) is 0.18 µM.

As for `CCC(CNC(=O)CN(Cc1ccc(OCc2ccccc2)cc1)C(=O)[C@H](Cc1cnc[nH]1)NC(=O)OCc1ccccc1)c1ccccc1` (stereo partly drawn) [[(S)-1-{(4-Benzyloxy-benzyl)-[(2-phenyl-butylcarbamoyl)-methyl]-carbamoyl}-2-(3H-imidazol-4-yl)-ethyl]-carbamic acid benzyl ester], it took 0.4 µM to reach half-maximal inhibition (IC50). Against the preceding compound, the IC50 is about 2.2-fold higher. The result for `CCCC(CNC(=O)CN(Cc1ccc(OCc2ccccc2)cc1)C(=O)[C@H](Cc1cnc[nH]1)NC(=O)OCc1ccccc1)c1ccccc1` (stereo partly drawn) [[(S)-1-{(4-Benzyloxy-benzyl)-[(2-phenyl-pentylcarbamoyl)-methyl]-carbamoyl}-2-(3H-imidazol-4-yl)-ethyl]-carbamic acid benzyl ester] reads greater than 1 µM; that for `CC(CNC(=O)CN(Cc1ccc(OCc2ccccc2)cc1)C(=O)[C@H](Cc1cnc[nH]1)NC(=O)OCc1ccccc1)c1ccccc1` (stereo partly drawn) [[(S)-1-{(4-Benzyloxy-benzyl)-[(2-phenyl-propylcarbamoyl)-methyl]-carbamoyl}-2-(3H-imidazol-4-yl)-ethyl]-carbamic acid benzyl ester], 0.31 µM. Turning to `C[C@H](Cc1ccccc1)NC(=O)CN(Cc1ccc(OCc2ccccc2)cc1)C(=O)[C@H](Cc1cnc[nH]1)NC(=O)OCc1ccccc1` [[(S)-1-{(4-Benzyloxy-benzyl)-[((R)-1-methyl-2-phenyl-ethylcarbamoyl)-methyl]-carbamoyl}-2-(3H-imidazol-4-yl)-ethyl]-carbamic acid benzyl ester], the concentration for half-maximal inhibition (IC50) was determined as 0.71 µM.

`C[C@@H](CNC(=O)CN(Cc1ccc(OCc2ccccc2)cc1)C(=O)[C@H](Cc1cnc[nH]1)NC(=O)OCc1ccccc1)c1ccccc1` [[(S)-1-{(4-Benzyloxy-benzyl)-[((R)-2-phenyl-propylcarbamoyl)-methyl]-carbamoyl}-2-(3H-imidazol-4-yl)-ethyl]-carbamic acid benzyl ester] displayed an IC50 of 0.57 µM.

As to `C[C@@H](Cc1ccccc1)NC(=O)CN(Cc1ccc(OCc2ccccc2)cc1)C(=O)[C@H](Cc1cnc[nH]1)NC(=O)OCc1ccccc1` [[(S)-1-{(4-Benzyloxy-benzyl)-[((S)-1-methyl-2-phenyl-ethylcarbamoyl)-methyl]-carbamoyl}-2-(3H-imidazol-4-yl)-ethyl]-carbamic acid benzyl ester], half-maximal inhibition (IC50) required 6.3 µM.

Compound `C[C@H](CNC(=O)CN(Cc1ccc(OCc2ccccc2)cc1)C(=O)[C@H](Cc1cnc[nH]1)NC(=O)OCc1ccccc1)c1ccccc1` [[(S)-1-{(4-Benzyloxy-benzyl)-[((S)-2-phenyl-propylcarbamoyl)-methyl]-carbamoyl}-2-(3H-imidazol-4-yl)-ethyl]-carbamic acid benzyl ester] showed a half-inhibitory concentration (IC50) of 0.3 µM.

The IC50 is the midpoint of a concentration-inhibition curve. Higher therefore signals weaker potency in that assay.
